{
  "source": "paper PMC3024946",
  "about": "“Hydroxyproline-containing collagen analogs trigger the release and activation of collagen-sequestered proMMP-2 by competition with prodomain-derived peptide P33-42” (Fibrogenesis & Tissue Repair, 2011)",
  "key": {"ActMMP-2 [1]": {"system": "ActMMP-2", "assay": "Fluorogenic short-substrate assay, activity of actMMP-2", "assay_type": "biochemical, human", "conditions": "CI-coated wells", "method": "(§1) Enzymatic activities of MMPs were studied spectrofluorimetrically by cleavage of fluorogenic substrates in MMP activity buffer within 2 to 5 h. For gelatinases 800 nM MCA-Pro-Leu-Gly-Leu-Dnp-Dap-Ala-Arg-NH2 (λex/em 328/393 nm; Bachem, Bubendorf, Switzerland) or 10 μg/ml DQ-gelatine were used, according to the method described by Knight et al. for collagenases 800 nM MCA-Pro-Cha-Gly-Nva-His-Ala-Dpa-NH2 (λex/em 280/360 nm; Anaspec, San José, CA, USA). In some experiments, proMMP-2 was fully activated in the presence of 1 mM APMA prior to the kinetic measurements. A quantity of 50 ng pro- or actMMP-2 alone or mixed with 10- to 150-fold molar excesses of (GPO)10, GAP, P33-42 or mixtures of (GPO)10 and P33-42, were added to CI-coated, BSA-coated (1 μg/well both) or uncoated wells containing 150 μl of the respective substrate solution. The peptide P33-42 was purchased from the Institute of Biochemistry (Humboldt-University, Berlin, Germany). The influence of CI on MMP-2 enzymatic activity against the quenched fluorescent substrate could be excluded. Background subtraction (measurement without MMPs) was applied to all curves. All experiments were performed with a fluorescence microplate reader (Molecular Devices, Sunnyvale, CA, USA) and black 96-well microtiter plates with a clear bottom (Greiner bio-one, Frickenhausen, Germany)."}, "[2]": {"conditions": "soluble human placenta-isolated triple-helical portion of CI; ref [30]; cited from earlier work", "text": "We tested α1(I) chains, which rapidly refold into triple-helical conformation in neutral buffers at room temperature, as well as CB-peptides of the α1(I) chain, where the length of the triple helix affects their thermal stability. Here the strength of binding of proMMP-2 and proMMP-9 to CB peptides directly correlated to the thermal stability of its tri ... || Native human CI, CIII and CVI were purified from skin tissue and placenta. The CI single chains α1(I) and α2(I) were obtained and modified as described previously. To prepare defined fragments, 2 mg of α1(I) were dissolved in 1 ml of 70% (vol/vol) formic acid at room temperature, the tubes were flushed with nitrogen for 10 min, and then 2 mg of CB were added. After incubation for 4 h at 37°C, free CB was neutralized and the samples were lyophilized. The peptides CB3, CB6, CB7 and CB8 were separated from the reaction mixture by gel filtration followed by ion-exchange chromatography. The ..."}, "ProMMP-9": {"system": "ProMMP-9", "assay": "Solid-phase binding of [125I]-proMMP-9 to immobilized collagens/peptides (microwells)", "design": "species or system human", "conditions": "ProMMP-9, 2 ng/well; coated wells; 4°C, 2 h; residual radioactivity; mean ± SD, at least five experiments in triplicate", "method": "(§2) Human recombinant proMMPs and in vitro activated MMPs were obtained from Invitek and were labeled with the [^125I]-Bolton-Hunter reagent according to the manufacturer's instructions (PerkinElmer, Rodgau, Germany) before the buffer was exchanged for phosphate-buffered saline (PBS) with 0.05% (vol/vol) Tween 20 by gel filtration as described previously. Specific radioactivity for [^125I]-MMPs was 3-9 × 10^4 cpm/ng. Precipitation with 10% (wt/vol) trichloroacetic acid and 200 μg of BSA recovered 96% to 100% of protein-bound radioactivity. Aliquots of labeled MMPs were frozen and stored at -80°C. The activity and integrity were checked by substrate gel zymography using SDS-PAGE and autoradiography with overnight exposure to Biomax MS film (Kodak, Stuttgart, Germany) (Figure 2A).\n(§3) Native human CI, CIII and CVI were purified from skin tissue and placenta. The CI single chains α1(I) and α2(I) were obtained and modified as described previously. To prepare defined fragments, 2 mg of α1(I) were dissolved in 1 ml of 70% (vol/vol) formic acid at room temperature, the tubes were flushed with nitrogen for 10 min, and then 2 mg of CB were added. After incubation for 4 h at 37°C, free CB was neutralized and the samples were lyophilized. The peptides CB3, CB6, CB7 and CB8 were separated from the reaction mixture by gel filtration followed by ion-exchange chromatography. The resulting peptides were characterized by amino acid analysis and SDS-PAGE [45, 46]. The CB peptides had the following melting temperatures: CB3, 23.9°C; CB6, 26.7°C; CB7, 28.1°C; and CB8, 28.0°C [31].\n(§4) The following collagen analogs and control peptides were synthesized as described previously: (GPO)10, H-Gly-Cys-Hyp-(Gly-Pro-Hyp)10-Gly-Cys-Hyp-Gly-NH2; (GPP)10, H-Gly-Cys-Pro-(Gly-Pro-Pro)10-Gly-Cys-Pro-Gly-NH2; and GAP, H-Gly-Ala-Cys-(Gly-Ala-Pro)5-Gly-Phe-Hyp-Gly-Glu-Arg-(Gly-Ala-Pro)5-NH2. Peptides (POG)10, (PPG)10 and (POG)5 were purchased from Peptide International (Louisville, KY, USA). Spontaneous triple-helix assembly was approved by polarimetry over a 10-cm path length at 1°C/min in 10 mM phosphate buffer, pH 7.4. At 5 mg/ml, midpoints of melting curves occurred at 82.3 ± 1.4°C for (GPO)10 and at 45.8 ± 0.8°C for (GPP)10. […] Graphs were calculated from the primary data using a custom fitting program written by D.A. Slatter (Department of Biochemistry, University of Cambridge, Cambridge, UK [48]) to model different possible transitions. All collagens, CI derivatives and peptides were stored in stock solutions of 2 mg/ml in 150 mM acetic acid at -20°C.\n(§5) ProMMP-2 and proMMP-9 or actMMP-2 and actMMP-9 were bound to nitrocellulose and polystyrene-immobilized native collagens, CI chains, CB peptides or structural analogs. Serial dilutions of collagens or CI derivatives in 150 mM acetic acid were dotted at 3 × 3 μl to a nitrocellulose membrane with high protein-binding capacity (GE Healthcare, Munich, Germany). Air-dried membranes were blocked with PBS and 0.3% (vol/vol) Tween 20 overnight at 4°C, washed three times, and incubated with 1 ng/ml [^125I]-pro- and actMMP-2 and pro- and actMMP-9 in PBS and 0.3% (vol/vol) Tween 20 for 2 h at room temperature. Membranes were washed again and air-dried, and bound MMP was monitored by autoradiography. In parallel, polystyrene microtiter plates (Dynex, Chantilly, VA, USA) were coated with collagen proteins and peptides. Here 2 μg/well or 200 ng/well proteins and peptides or BSA as control were immobilized in 100 μl of 50 mM ammonium bicarbonate buffer, pH 9.6, by overnight incubation at 4°C. Immobilization efficacies were 20% to 45% of total proteins. Wells were washed three times with PBS, and nonspecific binding sites were blocked with PBS and 0.05% (vol/vol) Tween 20 for 1 h at room temperature. All incubation steps were performed with 2 ng of [^125I]-MMPs at 4°C for 2 h. […]"}, "ProMMP-2 [3]": {"system": "ProMMP-2", "assay": "Fluorogenic short-substrate assay, activation of proMMP-2", "assay_type": "biochemical, human", "conditions": "proMMP-2; CI-coated wells", "method": "as §1"}, "ActMMP-9": {"system": "ActMMP-9", "assay": "Solid-phase binding of [125I]-actMMP-9 to immobilized collagens/peptides (microwells)", "design": "species or system human", "conditions": "ActMMP-9, 2 ng/well; coated wells; 4°C, 2 h; residual radioactivity; mean ± SD, at least five experiments in triplicate", "method": "as §2, §3, §4, §5"}, "ProMMP-2 [4]": {"system": "ProMMP-2", "assay": "Solid-phase binding of [125I]-proMMP-2 to immobilized collagens/peptides (microwells)", "design": "species or system human", "conditions": "ProMMP-2, 2 ng/well; coated wells; 4°C, 2 h; residual radioactivity; mean ± SD, at least five experiments in triplicate", "method": "as §2, §3, §4, §5"}, "ActMMP-2 [5]": {"system": "ActMMP-2", "assay": "Solid-phase binding of [125I]-actMMP-2 to immobilized collagens/peptides (microwells)", "design": "species or system human", "conditions": "ActMMP-2, 2 ng/well; coated wells; 4°C, 2 h; residual radioactivity; mean ± SD, at least five experiments in triplicate", "method": "as §2, §3, §4, §5"}},
  "data": [
    {"substance": "CI: native human collagen type I purified from skin tissue and placenta", "values": [
      {"measurement": "effect of CI coating on activity", "setting": "ActMMP-2 [1]", "result": "strong reduction in activity"},
      {"measurement": "melting temperature", "setting": "[2]", "result": 33.8, "unit": "°C"},
      {"measurement": "Binding of [125I]-MMPs", "setting": "ProMMP-9", "result": "30.9 ± 3.1 % of maximum control"},
      {"measurement": "effect of CI coating on activity", "setting": "ProMMP-2 [3]", "result": "strong reduction in activity"},
      {"measurement": "Binding of [125I]-MMPs", "setting": "ActMMP-9", "result": "3.1 ± 0.5 % of maximum control"},
      {"measurement": "Binding of [125I]-MMPs", "setting": "ProMMP-2 [4]", "result": "24.0 ± 5.6 % of maximum control"},
      {"measurement": "Binding of [125I]-MMPs", "setting": "ActMMP-2 [5]", "result": "11.1 ± 1.8 % of maximum control"}
    ]}
  ]
}
